Laboratory results published in US4537962A, “Substituted 1,3,4-thiadiazolo[3,2-A]pyrimidines and compositions containing them” (Farmitalia Carlo Erba, S.p.A., priority 1982, dated 1985).

Legend:
[1] = approximate acute toxicity (LD50) in the mouse; conditions: in vivo, po, per os, single administration of increasing doses, measured on the seventh day after the day of treatment
Excerpt: In view of their high therapeutic index, the compounds of the invention can be used safely in medicine, For example, the approximate acute toxicity (LD50) of the compounds 7-trans-(2-phenyl-ethenyl)-5H-1,3,4-thiadiazolo[3,2-a]pyrimidine-5-one, 2-methyl-7-trans-(2-phenyl-ethenyl)-5H-1,3,4-thiadiazolo[3,2-a]pyrimidine- 5-one, 7-trans-[2-(2,6-dichloro-phenyl)-ethenyl]-5H-1,3,4-thiadiazolo[3,2-a]pyrimidine-5-one, 7-trans-[2-(3-pyridyl)-ethenyl]-5H-1,3,4-thiadiazolo[3,2-a]pyrimidine-5-one, 7-trans-[2-(4-fluoro-phenyl)-ethenyl]-5H-1,3,4-thiadiazolo[3,2-a]pyrimidine-5-one, 2-phenyl-7-trans-[2-(3-pyridyl)-ethenyl]-5H-1,3,4-thiadiazolo[3,2-a]pyrimidine-5-one and 2-(4-methyl-phenyl)-7-trans-[2-(3-pyridyl)-ethenyl]-5H-1,3,4-thiadiazolo[3,2-a]pyrimidine-5-one in the mouse, determined by single administration of increasing doses and measured on the seventh day after the day of treatment, is higher than 800 mg/kg per os. Analogous toxicity data have been found for the other compounds of the invention.

gastric secretion = assay: gastric antisecretory activity in rats by the pylorus ligature technique (method of H. Shay et al.); type: in vivo, Sprague-Dawley male rats; conditions: 4 h; approximate ED50; rat, intraduodenal, four hours after pylorus ligature
Experimental: Gastric antisecretory activity was evaluated in rats by the pylorus ligature technique. Six Sprague-Dawley male rats (110-130 g) were used for each group. Twenty-four hours before the test, the rats were deprived of food but their water supply was maintained. On the day of the operation, the pylorus was ligated under light ether anaesthesia. Each compound was injected intraduodenally (i.d.) at the time of the ligature. Four hours after the ligature the rats were sacrificed, the stomach secretion was collected and centrifuged at 3500 r.p.m. for 10 minutes, and the volume, less sediment, was determined.
The amount of the free hydrochloric acid in the gastrc juice was determined by titration against 0.01N sodium hydroxide to pH 7.0 on the pH-meter.

restraint ulcers = assay: inhibition of restraint ulcers in rats (anti-ulcerogenic activity, method of Bonfils et al.); type: in vivo, Sprague-Dawley male rats; conditions: po; approximate ED50; rat, p.o. one hour before the immobilization; 4 hours immobilization; read-out: Antiulcerogenic activity p.o., ED50
Excerpt: The compounds of the present invention are active on the gastroenteric system, in particular they are endowed with anti-ulcerogenic and gastric anti-secretory activity and are therefore useful in therapy, for example in the prevention and treatment of peptic, e.g. duodenal, gastric and exophageal ulcers and to inhibit gastric acid secretion. The compounds of the invention are also useful for reducing the undesirable gastrointestinal side-effects resulting from systemic administration of anti-inflammatory prostaglandin synthetase inhibitors and may be, therefore, used for this purpose in association with them. The anti-ulcerogenic activity of the compounds of the invention is shown, e.g., by the fact that they are active in the test of the inhibition of restraint ulcers in rats, according to the method of Bonfils et al., (Therapie, 1960, 15, 1096; Jap. J. Pharmac. 1968, 18, 9).
Six Sprague-Dawley male rats (100-120 g) fasted 24 hours were used for the experiment: a square flexible small-mesh wire netting was used for the immobilization and 4 hours after the immobilization the rats were sacrificed, their stomachs were removed and the lesions counted under a dissecting microscope. The tested compounds were administered per os (p.o.) one hour before the immobilization.

SMILES	LD50 at 168 h [1]	ED50 (gastric secretion)	ED50 (restraint ulcers)
O=c1cc(/C=C/c2cccnc2)nc2scnn12 [7-trans-[2-(3-pyridyl)-ethenyl]-5H-1,3,4-thiadiazolo[3,2-a]pyrimidine-5-one]	> 800 mg/kg	–	–
O=c1cc(/C=C/c2c(Cl)cccc2Cl)nc2scnn12 [7-trans-[2-(2,6-dichloro-phenyl)-ethenyl]-5H-1,3,4-thiadiazolo[3,2-a]pyrimidine-5-one]	> 800 mg/kg	–	–
O=c1cc(/C=C/c2ccccc2)nc2scnn12 [7-trans-(2-phenyl-ethenyl)-5H-1,3,4-thiadiazolo[3,2-a]pyrimidine-5-one]	> 800 mg/kg	–	–
Cc1ccc(-c2nn3c(=O)cc(/C=C/c4cccnc4)nc3s2)cc1 [2-(4-methyl-phenyl)-7-trans-[2-(3-pyridyl)-ethenyl]-5H-1,3,4-thiadiazolo[3,2-a]pyrimidine-5-one]	> 800 mg/kg	~50 mg/kg	–
Cc1nn2c(=O)cc(/C=C/c3ccccc3)nc2s1 [2-methyl-7-trans-(2-phenyl-ethenyl)-5H-1,3,4-thiadiazolo[3,2-a]pyrimidine-5-one]	> 800 mg/kg	–	–
O=c1cc(/C=C/c2cccnc2)nc2sc(-c3ccccc3)nn12 [2-phenyl-7-trans-[2-(3-pyridyl)-ethenyl]-5H-1,3,4-thiadiazolo[3,2-a]pyrimidine-5-one]	> 800 mg/kg	–	3 mg/kg
O=c1cc(/C=C/c2ccc(F)cc2)nc2scnn12	> 800 mg/kg	–	–
